How the values were obtained:
Human skin fibroblasts [1] = assay: Experiment 2: cellular activity at different C-phycocyanin concentrations and UV doses; format: cell-based; conditions: UV 0, 10, 25, 50, 75 and 100 mJ/cm^2, FIG. 3
Method: (§1) 1. Human skin fibroblasts (purchased from Kurabo) and human skin keratinocytes (purchased from Kurabo or PromoCell) were used. A cell suspension (1 mL) stored with liquid nitrogen was placed in a hot water bath (37° C.) and thawed until small ice pellets remained, and then diluted with 9 mL of warm medium. 2. The diluted suspension was gently mixed and transferred to a T75 flask, and incubated overnight at 37° C. 3. On the following day, the medium was exchanged with 10 mL of fresh medium. 4. The medium was periodically exchanged (once every 2 days for fibroblasts, or once every 2 to 3 days for keratinocytes), while continuing growth of the cells. During this time, a microscope was used to observe the cells and to confirm that the cells had proliferated with the proper form. 5. Once the cells reached approximately 80% confluence, they were subcultured. Subculturing of the cells was carried out by rinsing once in 10 mL of warm PBS, after which 5 mL of warm trypsin was added to the T75 flask to cover the bottom of the flask with the trypsin solution, and the mixture was suctioned after standing for 1 minute at room temperature. 6. The flask was set in an oven at 37° C. for 2 minutes (maximum) for fibroblasts and 7 minutes (maximum) for keratinocytes. A microscope was used to observe the cells, confirming that they were small and elliptical. 7. […]

Human skin fibroblasts [2] = assay: Experiment 3: restoration of UV irradiation-reduced cellular activity; format: cell-based; conditions: pre-irradiation 400 mJ/cm^2 without substance, then UV 0-200 mJ/cm^2 through 0.4% or 2% C-phycocyanin; FIG. 5
Method: as §1

C-phycocyanin
cellular activity (relative fluorescence intensity) (Human skin fibroblasts [1]; 0.4% C-phycocyanin): reduction in cellular activity was inhibited even under UV irradiation | cellular activity (relative fluorescence intensity) (Human skin fibroblasts [1]; 2% C-phycocyanin): accelerated cellular activity even above the level with no UV irradiation | cellular activity of cells with previously lowered activity (Human skin fibroblasts [2]): cellular activity was restored
